Assay results reported in PubChem BioAssay (NCI).
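Results reflect a 48-hour exposure of cells in 96-well plates to compound at five concentrations. TGI: total growth inhibition.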

Legend:
Assay in all cases: NCI anticancer screen, dose series, 48 h
A498 renal = test system: A498 renal
A549 NSCLC = test system: A549 NSCLC
ACHN renal = test system: ACHN renal
CAKI-1 renal = test system: CAKI-1 renal
CCRF-CEM leukemia = test system: CCRF-CEM leukemia
COLO 205 colon = test system: COLO 205 colon
DU-145 prostate = test system: DU-145 prostate
EKVX NSCLC = test system: EKVX NSCLC
HCC-2998 colon = test system: HCC-2998 colon
HCT-116 colon = test system: HCT-116 colon
HCT-15 colon = test system: HCT-15 colon
HL-60(TB) leukemia = test system: HL-60(TB) leukemia
HOP-62 NSCLC = test system: HOP-62 NSCLC
HOP-92 NSCLC = test system: HOP-92 NSCLC
HS 578T breast = test system: HS 578T breast
HT29 colon = test system: HT29 colon
IGROV1 ovarian = test system: IGROV1 ovarian
K-562 leukemia = test system: K-562 leukemia
KM12 colon = test system: KM12 colon
M14 melanoma = test system: M14 melanoma
MALME-3M melanoma = test system: MALME-3M melanoma
MDA-MB-231 breast = test system: MDA-MB-231 breast
MDA-MB-435 = test system: MDA-MB-435
MDA-N = test system: MDA-N
NCI-H226 lung = test system: NCI-H226 lung
NCI-H23 lung = test system: NCI-H23 lung
NCI/ADR-RES ovarian = test system: NCI/ADR-RES ovarian
OVCAR-3 ovarian = test system: OVCAR-3 ovarian
OVCAR-4 ovarian = test system: OVCAR-4 ovarian
OVCAR-5 ovarian = test system: OVCAR-5 ovarian
OVCAR-8 ovarian = test system: OVCAR-8 ovarian
PC-3 prostate = test system: PC-3 prostate
RXF 393 renal = test system: RXF 393 renal
SF-268 CNS = test system: SF-268 CNS
SF-539 CNS = test system: SF-539 CNS
SK-MEL-2 melanoma = test system: SK-MEL-2 melanoma
SK-MEL-28 melanoma = test system: SK-MEL-28 melanoma
SK-MEL-5 melanoma = test system: SK-MEL-5 melanoma
SK-OV-3 ovarian = test system: SK-OV-3 ovarian
SN12C renal = test system: SN12C renal
SNB-19 CNS = test system: SNB-19 CNS
SNB-75 CNS = test system: SNB-75 CNS
SR leukemia = test system: SR leukemia
SW-620 colon = test system: SW-620 colon
T-47D breast = test system: T-47D breast
TK-10 renal = test system: TK-10 renal
UACC-62 melanoma = test system: UACC-62 melanoma
UO-31 renal = test system: UO-31 renal
786-0 renal = test system: 786-0 renal
BT-549 breast = test system: BT-549 breast
MCF7 breast = test system: MCF7 breast
MOLT-4 leukemia = test system: MOLT-4 leukemia
NCI-H460 lung = test system: NCI-H460 lung
NCI-H522 lung = test system: NCI-H522 lung
SF-295 CNS = test system: SF-295 CNS
U251 CNS = test system: U251 CNS
UACC-257 melanoma = test system: UACC-257 melanoma

O=c1c2cccnc2oc2c(Cl)cc(-c3nn[nH]n3)cc12
TGI (A498 renal): > 100 µM | TGI (A549 NSCLC): > 100 µM | TGI (ACHN renal): > 100 µM | TGI (CAKI-1 renal): > 100 µM | TGI (CCRF-CEM leukemia): > 100 µM | TGI (COLO 205 colon): > 100 µM | TGI (DU-145 prostate): > 100 µM | TGI (EKVX NSCLC): > 100 µM | TGI (HCC-2998 colon): > 100 µM | TGI (HCT-116 colon): > 100 µM | TGI (HCT-15 colon): > 100 µM | TGI (HL-60(TB) leukemia): > 100 µM | TGI (HOP-62 NSCLC): > 100 µM | TGI (HOP-92 NSCLC): > 100 µM | TGI (HS 578T breast): > 100 µM | TGI (HT29 colon): > 100 µM | TGI (IGROV1 ovarian): > 100 µM | TGI (K-562 leukemia): > 100 µM | TGI (KM12 colon): > 100 µM | TGI (M14 melanoma): > 100 µM | TGI (MALME-3M melanoma): > 100 µM | TGI (MDA-MB-231 breast): > 100 µM | TGI (MDA-MB-435): > 100 µM | TGI (MDA-N): > 100 µM | TGI (NCI-H226 lung): > 100 µM | TGI (NCI-H23 lung): > 100 µM | TGI (NCI/ADR-RES ovarian): > 100 µM | TGI (OVCAR-3 ovarian): > 100 µM | TGI (OVCAR-4 ovarian): > 100 µM | TGI (OVCAR-5 ovarian): > 100 µM | TGI (OVCAR-8 ovarian): > 100 µM | TGI (PC-3 prostate): > 100 µM | TGI (RXF 393 renal): > 100 µM | TGI (SF-268 CNS): > 100 µM | TGI (SF-539 CNS): > 100 µM | TGI (SK-MEL-2 melanoma): > 100 µM | TGI (SK-MEL-28 melanoma): > 100 µM | TGI (SK-MEL-5 melanoma): > 100 µM | TGI (SK-OV-3 ovarian): > 100 µM | TGI (SN12C renal): > 100 µM | TGI (SNB-19 CNS): > 100 µM | TGI (SNB-75 CNS): > 100 µM | TGI (SR leukemia): > 100 µM | TGI (SW-620 colon): > 100 µM | TGI (T-47D breast): > 100 µM | TGI (TK-10 renal): > 100 µM | TGI (UACC-62 melanoma): > 100 µM | TGI (UO-31 renal): > 100 µM

O=[N+]([O-])c1ccc2c(c1)C(N1CCN(CCO)CC1)Cc1ccc(F)cc1S2 (stereo not given)
TGI (786-0 renal): 26.4 µM | TGI (A498 renal): 25.8 µM | TGI (A549 NSCLC): 26.3 µM | TGI (ACHN renal): 16.7 µM | TGI (BT-549 breast): 23.1 µM | TGI (CAKI-1 renal): 26.3 µM | TGI (CCRF-CEM leukemia): 16.1 µM | TGI (COLO 205 colon): 28.7 µM | TGI (DU-145 prostate): 29 µM | TGI (EKVX NSCLC): 24.1 µM | TGI (HCC-2998 colon): 8.83 µM | TGI (HCT-116 colon): 19.7 µM | TGI (HCT-15 colon): 19 µM | TGI (HL-60(TB) leukemia): 23.1 µM | TGI (HOP-62 NSCLC): 43.8 µM | TGI (HS 578T breast): 26.1 µM | TGI (HT29 colon): 7.14 µM | TGI (IGROV1 ovarian): 15.7 µM | TGI (K-562 leukemia): 12.6 µM | TGI (KM12 colon): 21.4 µM | TGI (MCF7 breast): 28.8 µM | TGI (MDA-MB-231 breast): 28.2 µM | TGI (MDA-N): 24.1 µM | TGI (MOLT-4 leukemia): 9.21 µM | TGI (NCI-H226 lung): 23.1 µM | TGI (NCI-H23 lung): 29 µM | TGI (NCI-H460 lung): 27.3 µM | TGI (NCI-H522 lung): 18.3 µM | TGI (NCI/ADR-RES ovarian): 25.4 µM | TGI (OVCAR-3 ovarian): 54.6 µM | TGI (OVCAR-4 ovarian): 33.5 µM | TGI (OVCAR-5 ovarian): 26.9 µM | TGI (OVCAR-8 ovarian): 25.5 µM | TGI (PC-3 prostate): 15.4 µM | TGI (RXF 393 renal): 4.73 µM | TGI (SF-268 CNS): 31.4 µM | TGI (SF-295 CNS): 14.1 µM | TGI (SF-539 CNS): 22.6 µM | TGI (SK-MEL-28 melanoma): 6.06 µM | TGI (SK-MEL-5 melanoma): 3.48 µM | TGI (SK-OV-3 ovarian): 31 µM | TGI (SN12C renal): 28.9 µM | TGI (SNB-19 CNS): 24.6 µM | TGI (SNB-75 CNS): 12.4 µM | TGI (SR leukemia): 20.6 µM | TGI (SW-620 colon): 19.3 µM | TGI (T-47D breast): 37.6 µM | TGI (TK-10 renal): 27.8 µM | TGI (U251 CNS): 24.3 µM | TGI (UACC-257 melanoma): 7.01 µM | TGI (UACC-62 melanoma): 12.3 µM | TGI (UO-31 renal): 18.1 µM
